Measurements reported in patent publication US10611740B2, “Aryl dihydro-2H-benzo[b][1,4]oxazine sulfonamide and related compounds for use as agonists of RORγ and the treatment of disease” (Lycera Corporation, priority 2015, dated 2020).
Blank lines part the entries; values can stand above or below the compound they belong to.

Key:
Gal4-RORγ-LBD = molecular target: T1, Gal4-RORγ-LBD (Homo sapiens, UniProt P51449); test: Gal4-RORγ Luciferase Reporter Assay in HEK-293T Cells; format: cell-based; settings: HEK-293 cells, luciferase reporter, with 2 μM ursolic acid
T1 construct: expressed in transfected cells; host or cells: HEK-293 cells (pcDNA3.1neo plasmid)
T1 sequence (P51449 269-508 limits assumed): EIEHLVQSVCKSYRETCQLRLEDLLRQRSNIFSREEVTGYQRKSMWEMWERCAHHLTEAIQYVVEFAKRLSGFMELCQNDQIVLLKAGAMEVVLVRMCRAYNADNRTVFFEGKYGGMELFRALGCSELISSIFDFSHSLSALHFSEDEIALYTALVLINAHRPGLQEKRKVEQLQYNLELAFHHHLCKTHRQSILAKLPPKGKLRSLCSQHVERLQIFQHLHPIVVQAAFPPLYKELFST
Outline: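 HEK-293 cells were transiently co-transfected with Gal4-RORγ-LBD and pGL4.31 Gal4-luciferase, with ursolic acid added at 2 μM final. Compounds were incubated overnight at 37° C. in 0.2% DMSO and luminescence read with One-Glo. Max Response is the upper plateau of a 4-parameter logistic fit, with signal lacking ursolic acid or compound set to 100.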

RORγ-LBD = molecular target: T2, RORγ-LBD (Homo sapiens, UniProt P51449); test: RORγ-Ligand Binding Domain (LBD) TR-FRET Assay; format: biochemical;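 on TR-FRET Assay Max Response: 665/615 nm ratio relative to signal without ursolic acid or compound set at 100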
T2 construct: made in house; host or cells: SF9 cells (baculovirus)
T2 sequence (P51449 269-508 limits assumed): T1 sequence (P51449 269-508 limits assumed)
Outline: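 Compounds, diluted in DMSO and then in assay buffer (1% DMSO final), were combined with His-tagged RORγ-LBD lysate at roughly 3 nM final and a 200 nM biotinylated SRC1 LXXLL peptide. Ursolic acid was included at 2 μM final. Coactivator recruitment was detected by TR-FRET.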

Compound: CN(C)c1ccnc(-c2ccc3c(c2)N(S(=O)(=O)c2cccc(C(F)(F)F)c2)C[C@H](CCC(=O)O)O3)n1 [Compound 4AU, (S)-3-(6-(4-(dimethylamino)-pyrimidin-2-yl)-4-((3-(trifluoromethyl)phenyl)-sulfonyl)-3,4-dihydro-2H-benzo[b][1,4]oxazin-2-yl)propanoic acid]
EC50 (Gal4-RORγ-LBD): 500 to 5000 nM
Gal4-RORγ Assay Max Response (Gal4-RORγ-LBD): ** (The symbol “**” indicates a value in the range of greater than 90 to 150)
EC50 (RORγ-LBD): < 500 nM
TR-FRET Assay Max Response (RORγ-LBD): **** (The symbol “****” indicates a value greater than 200)

Compound: COc1cc(-c2ccc3c(c2)N(S(=O)(=O)c2cccc(C(F)(F)F)c2)C[C@H](CCC(=O)O)O3)ccn1 [Compound 4D, (S)-3-(6-(2-methoxypyridin-4-yl)-4-((3-(trifluoromethyl)-phenyl)sulfonyl)-3,4-dihydro-2H-benzo[b][1,4]oxazin-2-yl)propanoic acid]
EC50 (Gal4-RORγ-LBD): 500 to 5000 nM
Gal4-RORγ Assay Max Response (Gal4-RORγ-LBD): * (The symbol “*” indicates a value in the range of 25 to 90)
EC50 (RORγ-LBD): < 500 nM
TR-FRET Assay Max Response (RORγ-LBD): *** (The symbol “***” indicates a value in the range of greater than 150 to 200)

Compound: COc1cccc(-c2ccc3c(c2)N(S(=O)(=O)c2cccc(C(F)(F)F)c2)C[C@H](CCC(=O)O)O3)n1 [Compound 4E, (S)-3-(6-(6-methoxypyridin-2-yl)-4-((3-(trifluoromethyl)-phenyl)sulfonyl)-3,4-dihydro-2H-benzo[b][1,4]oxazin-2-yl)propanoic acid]
EC50 (Gal4-RORγ-LBD): 500 to 5000 nM
Gal4-RORγ Assay Max Response (Gal4-RORγ-LBD): ** (The symbol “**” indicates a value in the range of greater than 90 to 150)
EC50 (RORγ-LBD): < 500 nM
TR-FRET Assay Max Response (RORγ-LBD): **** (The symbol “****” indicates a value greater than 200)

Compound: COc1ccnc(-c2ccc3c(c2)N(S(=O)(=O)c2cccc(C(F)(F)F)c2)C[C@H](CCC(=O)O)O3)c1 [Compound 4F, (S)-3-(6-(4-methoxypyridin-2-yl)-4-((3-(trifluoromethyl)-phenyl)sulfonyl)-3,4-dihydro-2H-benzo[b][1,4]oxazin-2-yl)propanoic acid]
EC50 (Gal4-RORγ-LBD): 500 to 5000 nM
Gal4-RORγ Assay Max Response (Gal4-RORγ-LBD): ** (The symbol “**” indicates a value in the range of greater than 90 to 150)
EC50 (RORγ-LBD): < 500 nM
TR-FRET Assay Max Response (RORγ-LBD): **** (The symbol “****” indicates a value greater than 200)

Compound: O=C(O)CC[C@H]1CN(S(=O)(=O)c2cccc(C(F)(F)F)c2)c2cc(-c3nc(C(F)(F)F)cs3)ccc2O1 [Compound 4G, (S)-3-(4-((3-(trifluoromethyl)phenyl)sulfonyl)-6-(4-(trifluoromethyl)thiazol-2-yl)-3,4-dihydro-2H-benzo[b][1,4]oxazin-2-yl)propanoic acid]
EC50 (Gal4-RORγ-LBD): 500 to 5000 nM
Gal4-RORγ Assay Max Response (Gal4-RORγ-LBD): ** (The symbol “**” indicates a value in the range of greater than 90 to 150)
EC50 (RORγ-LBD): < 500 nM
TR-FRET Assay Max Response (RORγ-LBD): **** (The symbol “****” indicates a value greater than 200)

Now from value to compound, other results behind:

EC50 (Gal4-RORγ-LBD): < 500 nM
EC50 (RORγ-LBD): < 500 nM
Compound: COc1cc(-c2ccc3c(c2)N(S(=O)(=O)c2cccc(C(F)(F)F)c2)C[C@H](CCC(=O)O)O3)nc(N(C)C)c1 [Compound 4AP, (S)-3-(6-(6-(dimethylamino)-4-methoxypyridin-2-yl)-4-((3-(trifluoromethyl)phenyl)sul-fonyl)-3,4-dihydro-2H-benzo[b][1,4]oxazin-2-yl)propanoic acid]
Gal4-RORγ Assay Max Response (Gal4-RORγ-LBD): ** (The symbol “**” indicates a value in the range of greater than 90 to 150)
TR-FRET Assay Max Response (RORγ-LBD): **** (The symbol “****” indicates a value greater than 200)

EC50 (Gal4-RORγ-LBD): < 500 nM
EC50 (RORγ-LBD): < 500 nM
Compound: O=C(O)CC[C@H]1CN(S(=O)(=O)c2cccc(C(F)(F)F)c2)c2cc(-c3cc(Cl)cc(F)c3F)ccc2O1 [Compound 4AQ, (S)-3-(6-(5-chloro-2,3-difluorophenyl)-4-((3-(trifluoromethyl)phenyl)sul-fonyl)-3,4-dihydro-2H-benzo[b][1,4]oxazin-2-yl)propanoic acid]
Gal4-RORγ Assay Max Response (Gal4-RORγ-LBD): ** (The symbol “**” indicates a value in the range of greater than 90 to 150)
TR-FRET Assay Max Response (RORγ-LBD): **** (The symbol “****” indicates a value greater than 200)

EC50 (Gal4-RORγ-LBD): < 500 nM
EC50 (RORγ-LBD): < 500 nM
Compound: COc1cc(F)c(F)c(-c2ccc3c(c2)N(S(=O)(=O)c2cccc(C(F)(F)F)c2)C[C@H](CCC(=O)O)O3)c1 [Compound 4AR, (S)-3-(6-(2,3-difluoro-5-methoxyphenyl)-4-((3-(trifluoromethyl)phenyl)sul-fonyl)-3,4-dihydro-2H-benzo[b][1,4]oxazin-2-yl)propanoic acid]
Gal4-RORγ Assay Max Response (Gal4-RORγ-LBD): ** (The symbol “**” indicates a value in the range of greater than 90 to 150)
TR-FRET Assay Max Response (RORγ-LBD): **** (The symbol “****” indicates a value greater than 200)

EC50 (Gal4-RORγ-LBD): < 500 nM
EC50 (RORγ-LBD): < 500 nM
Compound: O=C(O)CC[C@H]1CN(S(=O)(=O)c2cccc(C(F)(F)F)c2)c2cc(-c3cc(C(F)(F)F)cc(F)c3F)ccc2O1 [Compound 4AS, (S)-3-(6-(2,3-difluoro-5-(trifluoromethyl)phenyl)-4-((3-(trifluoromethyl)phenyl)-sulfonyl)-3,4-dihydro-2H-benzo[b][1,4]oxazin-2-yl)propanoic acid]
Gal4-RORγ Assay Max Response (Gal4-RORγ-LBD): ** (The symbol “**” indicates a value in the range of greater than 90 to 150)
TR-FRET Assay Max Response (RORγ-LBD): **** (The symbol “****” indicates a value greater than 200)

EC50 (Gal4-RORγ-LBD): < 500 nM
EC50 (RORγ-LBD): < 500 nM
Compound: O=C(O)CC[C@H]1CN(S(=O)(=O)c2cccc(C(F)(F)F)c2)c2cc(-c3cc(F)cc(Cl)c3F)ccc2O1 [Compound 4AY, (S)-3-(6-(3-chloro-2,5-difluorophenyl)-4-((3-(trifluoromethyl)phenyl)-sulfonyl)-3,4-dihydro-2H-benzo[b][1,4]oxazin-2-yl)propanoic acid]
Gal4-RORγ Assay Max Response (Gal4-RORγ-LBD): ** (The symbol “**” indicates a value in the range of greater than 90 to 150)
TR-FRET Assay Max Response (RORγ-LBD): *** (The symbol “***” indicates a value in the range of greater than 150 to 200)

EC50 (Gal4-RORγ-LBD): < 500 nM
EC50 (RORγ-LBD): < 500 nM
Compound: COc1cc(F)cc(-c2ccc3c(c2)N(S(=O)(=O)c2cccc(C(F)(F)F)c2)C[C@H](CCC(=O)O)O3)c1F [Compound 4AZ, (S)-3-(6-(2,5-difluoro-3-methoxyphenyl)-4-((3-(trifluoromethyl)phenyl)-sulfonyl)-3,4-dihydro-2H-benzo[b][1,4]oxazin-2-yl)propanoic acid]
Gal4-RORγ Assay Max Response (Gal4-RORγ-LBD): ** (The symbol “**” indicates a value in the range of greater than 90 to 150)
TR-FRET Assay Max Response (RORγ-LBD): **** (The symbol “****” indicates a value greater than 200)

EC50 (Gal4-RORγ-LBD): < 500 nM
EC50 (RORγ-LBD): < 500 nM
Compound: O=C(O)CC[C@H]1CN(S(=O)(=O)c2cccc(C(F)(F)F)c2)c2cc(-c3nccc(C(F)(F)F)n3)ccc2O1 [Compound 4B, (S)-3-(4-((3-(trifluoromethyl)-phenyl)sulfonyl)-6-(4-(trifluoromethyl)pyrimidin-2-yl)-3,4-dihydro-2H-benzo[b][1,4]oxazin-2-yl)propanoic acid]
Gal4-RORγ Assay Max Response (Gal4-RORγ-LBD): ** (The symbol “**” indicates a value in the range of greater than 90 to 150)
TR-FRET Assay Max Response (RORγ-LBD): *** (The symbol “***” indicates a value in the range of greater than 150 to 200)
